For the first assay, the target named is T1, h FPR2 (Homo sapiens, UniProt P25090).
T1 construct: expressed in transfected cells
T1 sequence (P25090 1-351): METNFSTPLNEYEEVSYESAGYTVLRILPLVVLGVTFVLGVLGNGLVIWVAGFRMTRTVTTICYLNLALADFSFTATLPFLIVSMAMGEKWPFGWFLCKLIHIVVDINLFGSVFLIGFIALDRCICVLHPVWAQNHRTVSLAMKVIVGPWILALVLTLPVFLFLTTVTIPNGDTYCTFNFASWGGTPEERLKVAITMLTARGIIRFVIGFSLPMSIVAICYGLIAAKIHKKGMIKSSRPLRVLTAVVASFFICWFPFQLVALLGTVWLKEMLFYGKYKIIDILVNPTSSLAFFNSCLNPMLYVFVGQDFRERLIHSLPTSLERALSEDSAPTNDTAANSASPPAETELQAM
The assay can be described thus: Agonistic activity in hFPR2-Aq-CHO cells (FLIPR Calcium 5 fluorescence assay). The format is cell-based. The settings on record: 11 point half log dilution, final assay concentration from 10µM. The method, then: After washing, the cells are plated at 10,000 cells per well in 40 µL complete medium in a 384-well sterile clear bottom black plate and incubated in a 5% CO2 incubator at 37°C for 18 hours. Plating media is removed from each well by decanting and gentle tapping before 30 µL of 0.5X Calcium 5 dye solution (0.5X FLIPR Calcium 5 dye (Molecular devices, R8186)); HBSS; 20mM HEPES; 2.5mM Probenecid; 0.025% Pluronic F-127; pH adjusted to 7.4) is added to each well and the plate is then incubated at 37°C for 30 minutes. For the assay the plate is equilibrated at room temperature for 10 minutes before placing it in the FLIPR. Compounds are dissolved in DMSO and serially diluted over an 11 point half log (3.16 fold) dilution (2 mM to 20 nM). Compounds are then diluted 1:50 in assay buffer (HBSS; 20mM HEPES; 2.5mM Probenecid; 0.05% gelatin; 0.1% BSA; pH adjusted to 7.4) just before performing the assay. Compounds are finally added to the respective wells of the cell plate (final assay concentration 10 µM to 100 pM) using the FLIPR (e.g. FLIPR-Tetra, Molecular Devices) and fluorescence readings are captured for 5 minutes. The increase in fluorescence from the basal reading in the presence of the compounds is compared with that of the control wells (wells having no compound) to calculate the activity of the compounds. The EC50 values of the compounds can be determined using e.g. Graph pad Prism software.
Assay method for measuring agonistic activity of compounds in hFPR2-Aq-CHO cell
Cryo-vial containing 6x10^6 cells (hFPR1-Gα15-CHO or hFPR2-Aq-CHO) was thawed in a 37°C water bath. Cells were suspended in 10ml of respective complete growth media (F12(1X)HAM media (Gibco; Cat#11765); 10% HI-FBS (Gibco; Cat#10082); 0.4 mg/ml Geneticin (Gibco; Cat#10131); 0.25 mg/ml Zeocin (Invitrogen; Cat#R25001)) in a 15ml centrifuge tube. The cell viability was checked with the help of Trypan Blue dye. Upon washing the cells, those were plated in a 384-well sterile clear bottom black plate (Greiner Bioone Cat# 781091) so that, each well contained 10,000 cells in 40µl complete growth media. The plate was incubated in a 5% CO2 incubator at 37°C for 18 hours. Before assay on the next day, the cell plating media was removed from each well of the plate by decanting and gentle tapping. 30µl of 0.5X Calcium 5 dye solution (0.5X FLIPR Calcium 5 dye (Molecular devices Cat# R8186); HBSS (Invitrogen; Cat#14025); 20mM HEPES (Sigma; Cat#H0887); 2.5mM Probenecid (Sigma; Cat#P8761); 0.025% Pluronic F-127 (Sigma; Cat#P2443); pH adjusted to 7.4) was added to each well. The plate was then incubated at 37°C for 30 minutes. Following which the plate was equilibrated at room temperature for 10 minutes before placing it in a 384 well FLIPR for assay. Compounds were dissolved in DMSO and serially diluted following 11 point half log (3.16 fold) dilution with a starting concentration of 2mM (Final assay concentration 10µM). Aliquots of above mentioned each dilution was mixed with assay buffer (HBSS (Invitrogen; Cat#14025); 20mM HEPES (Sigma; Cat#H0887); 2.5mM Probenecid (Sigma; Cat#P8761); 0.05% gelatin (Sigma; Cat#G1890); 0.1% BSA (Sigma; Cat#A3059); pH adjusted to 7.4) just before performing the assay. Compounds were added to the respective wells of the assay ready cell plate with the help of the FLIPR (FLIPR Tetra) and fluorescence readings were captured for 5 minutes to measure any agonistic response of the compounds. The increase in fluorescence readings from the basal reading in presence of the compounds were compared with that of the control wells (wells having no compound) to calculate the agonistic activity of the compounds. The EC50 values of the compounds were determined using the Graph pad Prism software.
One may read the EC50 as the concentration at which the effect is half-maximal. In the case of `COc1ccc([C@@H]2CN(Cc3cncc(C)c3)CC[C@H]2NC(=O)Nc2ccc(Cl)cc2)nc1` (relative stereo) [Ex-64, trans-1-(4-chlorophenyl)-3-(3-(5-methoxypyridin-2-yl)-1-((5-methylpyridin-3-yl)methyl)piperidin-4-yl)urea], the EC50 was 0.06 nM.

As for `COc1ccc([C@@H]2CN(CC3(O)COC3)CC[C@H]2NC(=O)Nc2cc(C)ns2)nc1` (relative stereo) [Ex-217, trans-1-[1'-(3-hydroxy-oxetan-3-ylmethyl)-5-methoxy-1',2',3',4',5',6'-hexahydro-[2,3']bipyridinyl-4'-yl]-3-(3-methyl-isothiazol-5-yl)-urea], the EC50 stood at 6 nM.

Take `COc1ccc([C@@H]2CN(C(=O)C3CCN(C)CC3)CC[C@H]2NC(=O)Nc2ccccc2)nc1` (relative stereo) [Ex-156, trans-1-[3-(5-Methoxy-pyridin-2-yl)-1-(1-methyl-piperidine-4-carbonyl)-piperidin-4-yl]-3-phenyl-urea]: the EC50 is 58 nM.

As for `COc1ccc([C@@H]2CN(c3cnccn3)CC[C@H]2NC(=O)Nc2ccc(Cl)cc2)nc1` (relative stereo) [Ex-226, trans-1-(4-chloro-phenyl)-3-(5-methoxy-1'-pyrazin-2-yl-1',2',3',4',5',6'-hexahydro-[2,3']bipyridinyl-4'-yl)-urea], the EC50 is 0.9 nM.

Take `COc1ccc([C@@H]2CN(c3ccncn3)CC[C@H]2NC(=O)Nc2ccc(Cl)cc2)nc1` (relative stereo) [Ex-7, trans-1-(4-chloro-phenyl)-3-(5-methoxy-1'-pyrimidin-4-yl-1',2',3',4',5',6'-hexahydro-[2,3']bipyridinyl-4'-yl)-urea]: the EC50 was 0.4 nM.

For the compound `COc1ccc([C@H]2CN(CCO)CC[C@@H]2NC(=O)Nc2ccc(Cl)cc2)nc1` [Ex-206], the EC50 was found to be 2 nM.

Turning to `COc1ccc([C@@H]2CN(C(=O)C3CCNCC3)CC[C@H]2NC(=O)Nc2ccc(Cl)cc2)nc1` (relative stereo) [Ex-88, trans-1-(4-chloro-phenyl)-3-[5-methoxy-1'-(piperidine-4-carbonyl)-1',2',3',4',5',6'-hexahydro-[2,3']bipyridinyl-4'-yl]-urea], the EC50 stood at 1.2 nM.

Consider `COc1ccc([C@H]2CN(CC(F)F)CC[C@@H]2NC(=O)Nc2cc(C)ns2)nc1` [Ex-214], for which the EC50 stood at 0.8 nM.

As for `COc1ccc([C@H]2CN(CC3(C(N)=O)CC3)CC[C@@H]2NC(=O)Nc2ccc(Cl)cc2)nc1` [Ex-143, trans-1-[[4-[[(4-Chlorophenyl)-carbamoyl]amino]-3-(5-methoxy-pyridin-2-yl)-piperidin-1-yl]-methyl]-cyclopropane-1-carboxyfic acid amide], the EC50 came out at 0.12 nM.

For `COc1ccc([C@@H]2CN(c3ccc(F)cc3)CC[C@H]2NC(=O)Nc2ccc(Cl)cc2)nc1` (relative stereo) [Ex-18, trans-1-(4-chloro-phenyl)-3-[1'-(4-fluoro-phenyl)-5-methoxy-1',2',3',4',5',6'-hexahydro-[2,3']bipyridinyl-4'-yl]-urea], the EC50 came to 0.8 nM.

Consider `COc1ccc([C@@H]2CN(CCS(C)(=O)=O)CC[C@H]2NC(=O)Nc2ccc(Cl)cc2)nc1` (relative stereo) [Ex-93, trans-1-(4-chloro-phenyl)-3-[1'-(2-methanesulfonyl-ethyl)-5-methoxy-1',2',3',4',5',6'-hexahydro-[2,3']bipyridinyl-4'-yl]-urea], for which the concentration giving a half-maximal response (EC50) is 3 nM.

Consider `COc1ccc([C@@H]2CN(CC3CCC(O)CC3)CC[C@H]2NC(=O)Nc2ccc(Cl)cc2)nc1` (relative stereo) [Ex-114, trans-1-(4-chloro-phenyl)-3-[1'-(4-hydroxy-cyclohexylmethyl)-5-methoxy-1',2',3',4',5',6'-hexahydro-[2,3']bipyridinyl-4'-yl]-urea], for which the EC50 stood at 0.6 nM.

`COCCCN1CC[C@@H](NC(=O)Nc2ccc(Cl)cc2)[C@H](c2ccc(OC)cn2)C1` (single isomer, unassigned) [Ex-191, trans-1-(4-chlorophenyl)-3-[1-(3-methoxypropyl)-3-(5-methoxypyridin-2-yl)piperidin-4-yl]urea]: the EC50 stood at 0.7 nM.

Regarding `COc1ccc([C@@H]2CN(CCCO)CC[C@H]2NC(=O)Nc2ccc(Cl)cc2)nc1` (relative stereo) [Ex-103, trans-1-(4-chloro-phenyl)-3-[1'-(3-hydroxy-propyl)-5-methoxy-1',2',3',4',5',6'-hexahydro-[2,3']bipyridinyl-4'-yl]-urea], the EC50 stood at 2 nM.

Consider `COc1ccc([C@H]2CN(c3ccc(F)cc3)C(=O)C[C@H]2NC(=O)Nc2ccc(Cl)cc2)nc1` (relative stereo) [Ex-11, cis-1-(4-chlorophenyl)-3-[1-(4-fluorophenyl)-5-(5-methoxypyridin-2-yl)-2-oxopiperidin-4-yl]urea], for which the EC50 stood at 6 nM.

With `O=C(Nc1ccc(Cl)cc1)N[C@@H]1CC(=O)N(c2ccc(F)cc2)C[C@H]1c1ccc(Cl)cn1` (relative stereo) [Ex-14, trans-1-(4-chlorophenyl)-3-[5-(5-chloropyridin-2-yl)-1-(4-fluorophenyl)-2-oxopiperidin-4-yl]urea], the EC50 stood at 0.4 nM.

As to `CNCCN1CC[C@@H](NC(=O)Nc2cc(C)ns2)[C@H](c2ccc(OC)cn2)C1` (relative stereo) [Ex-134, trans-1-[3-(5-Methoxy-pyridin-2-yl)-1-(2-methylamino-ethyl)-piperidin-4-yl]-3-(3-methyl-isothiazol-5-yl)-urea], the EC50 came to 2 nM.

`COc1ccc([C@@H]2CN(C(=O)CN(C)C)CC[C@H]2NC(=O)Nc2ccc(Cl)cc2)nc1` (racemic) [Ex-94, trans-1-(4-chloro-phenyl)-3-[1'-(2-dimethylamino-acetyl)-5-methoxy-1',2',3',4',5',6'-hexahydro-[2,3']bipyridinyl-4'-yl]-urea]: the EC50 worked out at 2 nM.

`COc1ccc([C@@H]2CN(CC(C)(C)O)CC[C@H]2NC(=O)Nc2cc(C)ns2)nc1` (relative stereo) [Ex-121, trans-1-[1-(2-Hydroxy-2-methyl-propyl)-3-(5-methoxy-pyridin-2-yl)-piperidin-4-yl]-3-(3-methyl-isothiazol-5-yl)-urea]: the EC50 was 1.2 nM.

Still in this assay, the particulars now being: agonistic response at 0.1µM.
`O=C(Nc1ccc(Cl)cc1)N[C@@H]1CCN(CC2CCOCC2)C[C@H]1c1ccc(Cl)s1` (relative stereo) [Ex-86, trans-1-(4-chlorophenyl)-3-(3-(5-chlorothiophen-2-yl)-1-((tetrahydro-2H-pyran-4-yl)methyl)piperidin-4-yl)urea]: the activation at 0.1 µM came to 19%.

For `COc1ccc([C@@H]2CN(C(=O)CO)CC[C@H]2NC(=O)Nc2ccccc2)nc1` (relative stereo) [Ex-139, trans-1-[1-(2-Hydroxy-acetyl)-3-(5-methoxy-pyridin-2-yl)-piperidin-4-yl]-3-phenyl-urea], the activation at 0.1 µM amounted to 34%.

These data come from patent EP3789378A1, “PIPERIDINES OR PIPERIDONES SUBSTITUTED WITH UREA AND HETEROARYL” (Grünenthal GmbH, priority 2019, dated 2021).
